{"source": "patent US9340559B2", "about": "“Proteasome inhibitor delanzomib for use in the treatment of lupus” (Cephalon, Inc., priority 2011, dated 2016)", "key": {"[1]": {"tested_on": "NZM mice", "assay": "Splenomegaly (spleen mass), NZM mice (Example 2)", "assay_type": "in vivo, mouse", "conditions": "G5 1.5 mg/kg ip, 3× wk"}, "[2]": {"tested_on": "NZM mice", "assay": "Antibody secreting B-cell Elispot (anti-chromatin, total IgG ASC), spleens of NZM mice (Example 2)", "assay_type": "in vivo, mouse", "experimental": "(§1) FIG. 34 depicts the frequency of anti-chromatin antibody secreting cells in the spleens of NZM mice. NZM treated mice spleens were processed for splenocytes for ex vivo Elispot assays. Elispot wells were coated with 10 μg/mL of boiled chicken chromatin or ovalbumin protein. Fresh, whole splenocytes were added to each well at 50,000 cells per well in cell culture medium. Cells were incubated overnight at 37° C. Developed wells provided spots that were counted as frequency of ASCs per million splenocytes.\nas §1, with “35” for “34”, “total IgG” for “anti-chromatin”, “anti-mouse IgG, IgH, and IgL chains.” for “boiled chicken chromatin or ovalbumin protein.”\nB-cell Elispot components are ordered from MabTech (Nacka Strand, Sweden) and nitrocellulose IP filter plates are ordered from Millipore (Billerica, Mass.). Elispot wells are coated with either purified bovine thymus dsDNA (Sigma), purified bovine Smith antigen (GenWay) or boiled filtered purified chicken chromatin from lysed chicken red blood cells (Rockland, Gilbertsville, Pa.) at 10 μg/mL. Spleens are processed using glass homogenization (frosted slides). Dispersed cell contents are washed in sterile HBSS and RBCs lysed using 1×RBC lysis buffer (BioLegend, Cat #420301). Processed splenocytes are added to each well and are not stimulated with lipopolysaccharide (LPS) to avoid skewing of true ex vivo frequencies of antibody-secreting cell types (ASCs). Anti-mouse pan-IgG is used as a positive control for total IgG producing ASCs and is used to normalize results. Frequencies for each antigen are identified in an initial test phase for each model. For chromatin and total IgG only, 30,000 splenocytes are added to each well; for Smith antigen and dsDNA, 500,000 cells are added to each well. Different numbers of splenocytes are added for different antigens due to saturation limits of spot frequencies per well. B-cell Elispots are incubated overnight at 37° C. To develop each assay, secondary antibody is added to each well, incubated, washed and alkaline phosphatase strepavidin (Jackson ImmunoResearch, West Grove, Pa.) is used as the conjugate; substrate used is BCIP-NBT (MabTech, Cincinnati, Ohio). Plates are developed until spots are visible. All Elispot analyses are performed using an Immunospot C.T.L. scanner and Biospot software (Cellular Technology Ltd., Shaker Heights, Ohio). Results are shown as values from which media and cells only wells are subtracted. Some values are negative due to high background."}, "[3]": {"tested_on": "NZM mice", "assay": "Collagen type-I cross-linker (CTx) bone resorption biomarker ELISA, serum of NZM mice", "assay_type": "in vivo, mouse", "experimental": "Assay is performed as instructed by the manufacturer. Briefly, biotinylated ratlaps antigen is first added in each well of a 96-well ELISA plate. This plate is covered and incubated for 30 minutes at RT. Plate is washed five times with washing solution and incubated with standards or unknown samples in appropriate wells followed by primary Ab. Incubate overnight for 18 hours at 4° C. followed by washing with buffer. Secondary incubation includes a peroxidase conjugated goat anti-rabbit IgG added to each well and incubation at RT for 1 hour. Incubation with chromogenic substrate solution for 15 minutes at RT in the dark develops the plate for analysis. Stopping solution halts the reaction, absorbance is measured within 2 hours at 450 nm."}, "[4]": {"tested_on": "NZM mice", "assay": "Serum C3 complement ELISA, NZM mice (Example 2)"}}}
{"smiles": "C[C@@H]1C[C@H]2[C@@H]3CCC4=CC(=O)C=C[C@]4(C)[C@@]3(F)[C@@H](O)C[C@]2(C)[C@@]1(O)C(=O)CO", "note": "[dexamethasone, Dexamethasone, reference compound]", "values": [{"measurement": "Spleen mass EOS, percent change vs vehicle", "setting": "[1]", "result": "−59", "unit": "%"}, {"measurement": "ASC chromatin EOS, percent change vs vehicle", "setting": "[2]; G5 1.5 mg/kg ip, 3× wk", "result": "−42", "unit": "%"}, {"measurement": "ASC total IgG EOS, percent change vs vehicle", "setting": "[2]; G5 1.5 mg/kg ip, 3× wk", "result": "+19%"}, {"measurement": "p, frequency of total IgG antibody secreting cells in spleen vs G7 CTX 50 mg/kg 1× wk ip", "setting": "[2]; G8 1.5 mg/kg 3× wk ip", "result": "p < 0.01"}, {"measurement": "Serum CTx linker AUC, percent change vs vehicle", "setting": "[3]; G5 1.5 mg/kg ip, 3× wk", "result": 21, "unit": "%"}, {"measurement": "p, serum concentration of collagen type I cross-linker vs G5 Bortezomib 0.3 mg/kg 1× wk ip", "setting": "[3]; G8 1.5 mg/kg 3× wk ip", "result": "p < 0.05"}, {"measurement": "p, serum concentration of collagen type I cross-linker vs G6 Bortezomib 0.3 mg/kg 2× wk ip", "setting": "[3]; G8 1.5 mg/kg 3× wk ip", "result": "p < 0.01"}, {"measurement": "Serum C3 complement AUC, percent change vs vehicle", "setting": "[4]; G5 1.5 mg/kg ip, 3× wk", "result": 45, "unit": "%"}, {"measurement": "p, serum C3 complement levels vs G6 Bortezomib 0.3 mg/kg 2× wk ip", "setting": "[4]; G8 1.5 mg/kg 3× wk ip", "result": "p < 0.05"}, {"measurement": "p, serum C3 complement levels vs G7 CTX 50 mg/kg 1× wk ip", "setting": "[4]; G8 1.5 mg/kg 3× wk ip", "result": "p < 0.01"}]}
